Measured values taken from patent EP4768499A1, “MACROCYCLIC PEPTIDE COMPOUND HAVING CELL MEMBRANE PERMEABILITY AND METABOLIC STABILITY, AND LIBRARY CONTAINING SAME” (Chugai Seiyaku Kabushiki Kaisha, priority 2023, dated 2025).
Starred links: 1 amine or outer side, 2 acyl side, 3 side chain; linkers in the order of their positions; H or OH if unused. Positions of bridges follow the written chain, without caps; N, C: chain ends. Non-standard residues stand in square brackets, D forms with d. Residues, ends and D or L forms follow the SMILES beside them. *: point of attachment. NMeF = CN[C@@H](Cc1ccccc1)C(=O)O; NMeGABA = CN(CCCC(=O)[*:2])[*:1]; NMeI = CC[C@H](C)[C@H](NC)C(=O)O; NMeT = CN[C@H](C(=O)O)[C@@H](C)O; hPhe = N[C@@H](CCc1ccccc1)C(=O)O; NMeβAla = CN(CCC(=O)[*:2])[*:1]; NMeD = CN[C@@H](CC(=O)O)C(=O)O; NMeL = CN[C@@H](CC(C)C)C(=O)O; NMeV = CN[C@H](C(=O)O)C(C)C; NMeAbu = CC[C@H](NC)C(=O)O; NMeA = CN[C@@H](C)C(=O)O; Piperidide = C1CCN(*)CC1; Abu = CC[C@H](N)C(=O)O; NBuGly = CCCCNCC(=O)O; Sar = CNCC(=O)O; tBu = CC(C)(C)*

Experiments:
[1] = Metabolic stability test: liver microsomal stability assay; assay type: in vitro ADME, mouse; details: mouse liver microsomes 0.5 mg protein/mL, compound 1 µM; for microsomal CLint at 1 µM: male, pH 7.4, presence of NADPH, read-out: Mouse Hepatic Microsome CLh,int NADPH(+); for Mouse Hepatic Microsome CLh,int NADPH(-): absence of NADPH
[2] = tested on: Caco-2 cells; experiment: Membrane permeability test using Caco-2 cells with preincubation; assay type: in vitro ADME; details: Caco-2 cells, preincubation 20 to 24 hours; apical FaSSIF/HBSS 1% DMSO pH 6.0, basal HBSS 4% BSA pH 7.4; basal sample at 180 minutes
[3] = as above; assay type: in vitro ADME; details: Caco-2; preincubation 20 to 24 hours; Apical FaSSIF/HBSS pH 6.0, Basal HBSS 4% BSA pH 7.4; 180 minutes; read-out: Caco2 Papp

SMILES	microsomal CLint at 1 µM [1]	Mouse Hepatic Microsome CLh,int NADPH(-) [1]	Caco2 Papp (10^-6 cm/sec) [2]	Papp A→B [3]
CC[C@H](C)[C@@H]1NC(=O)CN(C)C(=O)C[C@@H](C(=O)N2CCCCC2)N(C)C(=O)[C@H](Cc2ccccc2)N(C)C(=O)[C@H](CC(C)C)N(C)C(=O)[C@H]([C@@H](C)O)NC(=O)[C@H](CC(C)C)N(C)C(=O)[C@H](CC(C)C)NC(=O)[C@H](C(C)C)N(C)C(=O)[C@H](C)N(C)C(=O)[C@H](CC(C)C)N(C)C(=O)[C@H](CCc2ccccc2)NC(=O)[C@H](CC(C)C)N(C)C1=O [pd165] ([Sar]I[NMeL][hPhe][NMeL][NMeA][NMeV]L[NMeL]T[NMeL][NMeF][NMeD]-Piperidide; lactam N-13)	40.9 µL/min/mg	27.2 µL/min/mg Protein	0.10 10^-6 cm/sec	0.1 ×10⁻⁶ cm/s
CC[C@@H]1NC(=O)[C@H](CC(C)C)N(C)C(=O)C[C@@H](C(=O)N2CCCCC2)N(C)C(=O)[C@H](C(C)C)NC(=O)[C@H](CC(C)C)N(C)C(=O)[C@H](C)NC(=O)[C@H](CC)N(C)C(=O)[C@H](C(C)C)NC(=O)[C@H](CC(C)C)N(C)C(=O)[C@H](C)N(C)C(=O)[C@H](Cc2ccccc2)N(C)C(=O)[C@H](C(C)C)NC(=O)[C@@H]2CCCN2C(=O)[C@H](C(C)C)N(C)C1=O [pd078] ([NMeL][Abu][NMeV]PV[NMeF][NMeA][NMeL]V[NMeAbu]A[NMeL]V[NMeD]-Piperidide; lactam N-14)	28.3 µL/min/mg	22.9 µL/min/mg Protein	2.75 10^-6 cm/sec	2.75 ×10⁻⁶ cm/s
CC[C@@H]1NC(=O)[C@H](C)N(C)C(=O)[C@H](CC(C)C)N(C)C(=O)[C@H]([C@@H](C)O)N(C)C(=O)[C@H](CC(C)C)N(C)C(=O)[C@H](C)NC(=O)[C@H](Cc2ccccc2)N(C)C(=O)CN(C)C(=O)C[C@@H](C(=O)N2CCCCC2)NC(=O)[C@H](C(C)C)N(C)C(=O)[C@H](C)NC(=O)[C@@H]2CCCN2C(=O)[C@H](C(C)C)NC(=O)[C@H](Cc2ccccc2)N(C)C1=O [pd046] ([Sar][NMeF]A[NMeL][NMeT][NMeL][NMeA][Abu][NMeF]VPA[NMeV]D-Piperidide; lactam N-14)	6.2 µL/min/mg	5.4 µL/min/mg Protein	0.06 10^-6 cm/sec	0.06 ×10⁻⁶ cm/s
CC[C@H](C)[C@H]1C(=O)N[C@@H](Cc2ccccc2)C(=O)N2CCC[C@H]2C(=O)N(C)[C@@H](CC(C)C)C(=O)N[C@@H](COC(C)(C)C)C(=O)N(C)[C@@H](Cc2ccccc2)C(=O)N[C@@H]([C@@H](C)O)C(=O)N(C)[C@@H](CC)C(=O)N2CCC[C@H]2C(=O)N(C)[C@@H](CC(C)C)C(=O)N[C@@H](C(C)C)C(=O)N[C@H](C(=O)N2CCCCC2)CC(=O)N(C)CCCC(=O)N(C)[C@@H](CC(C)C)C(=O)N1C [pd042] ([NMeGABA][NMeL][NMeI]FP[NMeL]S(tBu)[NMeF]T[NMeAbu]P[NMeL]VD-Piperidide; lactam N-14)	32.3 µL/min/mg	18.1 µL/min/mg Protein	0.59 10^-6 cm/sec	0.59 ×10⁻⁶ cm/s
CC[C@H](C)[C@@H]1NC(=O)CN(C)C(=O)C[C@@H](C(=O)N2CCCCC2)N(C)C(=O)[C@H](CC(C)C)NC(=O)[C@H](CC(C)C)N(C)C(=O)[C@H]([C@@H](C)O)NC(=O)[C@H](Cc2ccccc2)N(C)C(=O)[C@H](CC(C)C)NC(=O)[C@H](C(C)C)N(C)C(=O)[C@H](C)N(C)C(=O)[C@H](CC(C)C)N(C)C(=O)[C@H](CCc2ccccc2)NC(=O)[C@H](CC(C)C)N(C)C1=O [pd160] ([Sar]I[NMeL][hPhe][NMeL][NMeA][NMeV]L[NMeF]T[NMeL]L[NMeD]-Piperidide; lactam N-13)	21.5 µL/min/mg	22.3 µL/min/mg Protein	0.06 10^-6 cm/sec	0.06 ×10⁻⁶ cm/s
CC[C@H](C)[C@H]1C(=O)N[C@@H]([C@@H](C)O)C(=O)N(C)CC(=O)N(C)[C@@H](CC(C)C)C(=O)N[C@@H](CC(C)C)C(=O)N[C@H](C(=O)N2CCCCC2)CC(=O)N(C)[C@@H](C)C(=O)N[C@@H](CC(C)C)C(=O)N(C)[C@@H](CC(C)C)C(=O)N[C@@H](C(C)C)C(=O)N(C)CCC(=O)N(C)[C@@H](Cc2ccccc2)C(=O)N[C@@H](C)C(=O)N(C)[C@@H](Cc2ccccc2)C(=O)N1C [pd037] ([NMeA]L[NMeL]V[NMeβAla][NMeF]A[NMeF][NMeI]T[Sar][NMeL]LD-Piperidide; lactam N-14)	18.3 µL/min/mg	17.7 µL/min/mg Protein	0.26 10^-6 cm/sec	0.26 ×10⁻⁶ cm/s
CC[C@H](C)[C@H]1C(=O)N[C@@H](CC(C)C)C(=O)N(C)[C@@H](CC(C)C)C(=O)N2CCC[C@H]2C(=O)N(C)[C@@H](C(C)C)C(=O)N[C@H](C(=O)N2CCCCC2)CC(=O)N[C@@H](C)C(=O)N(C)[C@@H](CC(C)C)C(=O)N[C@@H](C(C)C)C(=O)N(C)[C@@H](Cc2ccccc2)C(=O)N(C)[C@@H](CC(C)C)C(=O)N[C@@H](C)C(=O)N(C)[C@@H](Cc2ccccc2)C(=O)N[C@@H]([C@@H](C)O)C(=O)N1C [pd036] (A[NMeL]V[NMeF][NMeL]A[NMeF]T[NMeI]L[NMeL]P[NMeV]D-Piperidide; lactam N-14)	35.4 µL/min/mg	25.7 µL/min/mg Protein	0.28 10^-6 cm/sec	0.28 ×10⁻⁶ cm/s

The next lines start with the values.

microsomal CLint at 1 µM [1]	Mouse Hepatic Microsome CLh,int NADPH(-) [1]	Caco2 Papp (10^-6 cm/sec) [2]	Papp A→B [3]	SMILES
32.6 µL/min/mg	38.5 µL/min/mg Protein	0.03 10^-6 cm/sec	0.03 ×10⁻⁶ cm/s	CCCCN1CC(=O)N(C)[C@@H](Cc2ccccc2)C(=O)N[C@@H](COC(C)(C)C)C(=O)N(C)[C@@H](CC(C)C)C(=O)N(C)[C@@H](CC)C(=O)N(C)[C@@H](C)C(=O)N[C@@H]([C@@H](C)CC)C(=O)N(C)[C@@H](C(C)C)C(=O)N[C@@H](C(C)C)C(=O)N(C)[C@H](C(=O)N2CCCCC2)CC(=O)N(C)CCC(=O)N(C)[C@@H](CC(C)C)C(=O)N[C@@H]([C@@H](C)CC)C(=O)N(C)[C@@H](Cc2ccccc2)C1=O [pd082] ([NMeβAla][NMeL]I[NMeF][NBuGly][NMeF]S(tBu)[NMeL][NMeAbu][NMeA]I[NMeV]V[NMeD]-Piperidide; lactam N-14)
11.1 µL/min/mg	9.6 µL/min/mg Protein	0.06 10^-6 cm/sec	0.06 ×10⁻⁶ cm/s	CC[C@@H]1NC(=O)[C@@H]2CCCN2C(=O)[C@H](C(C)C)NC(=O)[C@H](Cc2ccccc2)N(C)C(=O)[C@H](C)N(C)C(=O)[C@H](CC(C)C)N(C)C(=O)[C@H]([C@@H](C)O)N(C)C(=O)[C@H](CC(C)C)N(C)C(=O)[C@H](CC)NC(=O)[C@H](Cc2ccccc2)N(C)C(=O)CN(C)C(=O)C[C@@H](C(=O)N2CCCCC2)NC(=O)[C@H](C(C)C)N(C)C1=O [pd122] ([Sar][NMeF][Abu][NMeL][NMeT][NMeL][NMeA][NMeF]VP[Abu][NMeV]D-Piperidide; lactam N-13)
25.9 µL/min/mg	14.4 µL/min/mg Protein	0.17 10^-6 cm/sec	0.17 ×10⁻⁶ cm/s	CC[C@H]1C(=O)N(C)[C@@H](CC(C)C)C(=O)N[C@@H]([C@@H](C)O)C(=O)N(C)[C@@H](C)C(=O)N(C)[C@@H](CC(C)C)C(=O)N[C@H](C(=O)N2CCCCC2)CC(=O)N(C)CCCC(=O)N[C@@H](CC(C)C)C(=O)N(C)[C@@H](CC(C)C)C(=O)N(C)[C@@H](C)C(=O)N(C)[C@@H](Cc2ccccc2)C(=O)N[C@@H](C)C(=O)N(C)[C@@H](Cc2ccccc2)C(=O)N1C [pd117] ([NMeGABA]L[NMeL][NMeA][NMeF]A[NMeF][NMeAbu][NMeL]T[NMeA][NMeL]D-Piperidide; lactam N-13)
21.9 µL/min/mg	21.8 µL/min/mg Protein	1.11 10^-6 cm/sec	1.11 ×10⁻⁶ cm/s	CCCCN1CC(=O)N(C)[C@@H](Cc2ccccc2)C(=O)N[C@@H](CC(C)C)C(=O)N(C)[C@@H](C(C)C)C(=O)N(C)[C@@H](C)C(=O)N[C@@H](COC(C)(C)C)C(=O)N(C)[C@@H](CC)C(=O)N(C)[C@H](C(=O)N2CCCCC2)CC(=O)N(C)CC(=O)N(C)[C@@H](Cc2ccccc2)C(=O)N[C@@H]([C@@H](C)CC)C(=O)N(C)[C@@H](CC(C)C)C(=O)N(C)[C@@H]([C@@H](C)O)C1=O [pd168] ([Sar][NMeF]I[NMeL][NMeT][NBuGly][NMeF]L[NMeV][NMeA]S(tBu)[NMeAbu][NMeD]-Piperidide; lactam N-13)
32.9 µL/min/mg	25.1 µL/min/mg Protein	0.09 10^-6 cm/sec	0.09 ×10⁻⁶ cm/s	CC[C@H](C)[C@@H]1NC(=O)[C@H](C)N(C)C(=O)[C@H]([C@@H](C)O)NC(=O)[C@H](Cc2ccccc2)N(C)C(=O)[C@H](COC(C)(C)C)NC(=O)[C@H](CC(C)C)N(C)C(=O)[C@H](CCc2ccccc2)NC(=O)[C@@H]2CCCN2C(=O)[C@H]([C@@H](C)CC)NC(=O)[C@H](CC(C)C)N(C)C(=O)CCCN(C)C(=O)C[C@@H](C(=O)N2CCCCC2)NC(=O)[C@H](CC(C)C)N(C)C1=O [pd102] ([NMeGABA][NMeL]IP[hPhe][NMeL]S(tBu)[NMeF]T[NMeA]I[NMeL]D-Piperidide; lactam N-13)
41.2 µL/min/mg	34.2 µL/min/mg Protein	0.50 10^-6 cm/sec	0.5 ×10⁻⁶ cm/s	CC[C@H](C)[C@H]1C(=O)N[C@@H](CC(C)C)C(=O)N(C)[C@@H](CC(C)C)C(=O)N2CCC[C@H]2C(=O)N(C)[C@@H](C(C)C)C(=O)N[C@H](C(=O)N2CCCCC2)CC(=O)N(C)[C@@H](C)C(=O)N(C)[C@@H](CC(C)C)C(=O)N[C@@H](COC(C)(C)C)C(=O)N(C)[C@@H](Cc2ccccc2)C(=O)N(C)[C@@H](CC)C(=O)N(C)[C@@H](Cc2ccccc2)C(=O)N[C@@H]([C@@H](C)O)C(=O)N1C [pd119] ([NMeA][NMeL]S(tBu)[NMeF][NMeAbu][NMeF]T[NMeI]L[NMeL]P[NMeV]D-Piperidide; lactam N-13)
